Source: patent publication US11485974B2, “Method of fixing and expressing physiologically active substance” (STELIC INSTITUTE & CO., priority 2007, dated 2022)

Legend:
[1] = Retention of iopamidol injected into the submucous tissue of rat large intestine, X-ray photography and CT scanning; type: in vivo, Wistar rats; conditions: normal rats, 20 μl injected into submucous tissue of the left colon, after one hour
Protocol: Next, the retention of physiologically active substances in the submucous tissue of normal rats was analyzed by diagnostic imaging using X-ray and CT, which are routinely used clinically. Twelve-week-old male Wistar rats were anesthetized with Nembutal, and then an ultrathin endoscope for humans was inserted into the large intestines and 20 μl of iopamidol, a contrast medium, was endoscopically injected alone into the submucous tissue of the left colon using a local injection needle.
X-ray photography and CT scanning was carried out after one hour.

[2] = Nucleic acid kinetics in the submucous tissue of mouse large intestine, siRNA concentration by ELISA; type: in vivo; conditions: mice, 0.3 μg/10 μl at three sites
Protocol: Next, in order to also confirm the retention of injected siRNA in the submucous tissue of the large intestine by biochemical methods, the concentration of siRNA in the large intestine was determined by using the ELISA method for direct quantitation of siRNA according to a published report (Rosie Z et al. Analytical Biochem. 304: 19-25, 2002). The nucleotide sequences of GalNac 4S-6ST siRNA used in this Example are shown below, but the sequences are not limited to the example shown herein.
GalNAc4S-6ST siRNA (0.3 μg/10 μl) was injected at three sites to the submucous tissue of large intestine in eight-week-old female C57BL/6.1 mice by the same method described in Example 3. The mice were sacrificed 0.5, 3, 6, or 24 hours after injection to prepare histological samples of the large intestine. The siRNA concentrations were determined by the ELISA methods.
1 μg/ml siRNA before injection was used as a positive control without any additional treatment.

[3] = system: DSS-induced colitis model mice; assay: Histology (hematoxylin-eosin) of large intestine in DSS colitis model mice; type: in vivo, C57BL/6J mice; conditions: HE-stained sections of large intestine
Protocol: (§1) A colitis model mice was prepared by allowing C57BL/6J mice (female, six weeks old; CLEA Japan Inc.) to freely drink […] containing 3% dextran sulfate sodium (DSS; Wako Pure Chemical Industries Inc.) for five days. This DSS-induced colitis model has excellent reproducibility, and is thus used widely as a standard experimental model for inflammatory bowel diseases such as mouse ulcerative colitis and Crohn's disease (Sasaki N, J Inflamm. 2005 2: 13; as a review, Pucilowska J B et al. Am J Physiol Gastroenterol Liver Physiol. 279: G653-G659, 2000).
(§2) The same GalNAc4S-6ST siRNA (0.3 μg/head) as used in Example 5 was injected to the submucous tissue of mouse large intestine, while the mice were allowed to drink water containing 3% DSS. The control groups used were: a group injected with scramble siRNA (“BLOCK-iT Fluorescent Oligo (Invitrogen)” in Example 4) and an untreated group in which mice were allowed to drink DSS water only. The body weight and disease activity index (DAI) score (Kihara M, Gut. 2003 52: 713-9) were recorded for five days while the mice were allowed to drink water containing 3% DDS. Then, the mice were sacrificed on the fifth day.
Next, tissue sections were prepared from collected large intestines and stained with hematoxylin-eosin. The resulting histological images were analyzed (FIG. 10).

[4] = system: DSS-induced colitis model mice; assay: Disease activity index (DAI: stool consistency, fecal occult blood) in DSS colitis model mice; type: in vivo, C57BL/6J mice; conditions: compared to the control group
Protocol: as §1
The same GalNAc4S-6ST siRNA (0.3 μg/head) as used in Example 5 was injected to the submucous tissue of mouse large intestine, while the mice were allowed to drink water containing 3% DSS. The control groups used were: a group injected with scramble siRNA (“BLOCK-iT Fluorescent Oligo (Invitrogen)” in Example 4) and an untreated group in which mice were allowed to drink DSS water only. The body weight and disease activity index (DAI) score (Kihara M, Gut. 2003 52: 713-9) were recorded for five days while the mice were allowed to drink water containing 3% DDS. […]
The colitis activity index (DAI) was analyzed by the same method described in Example 7.
The first day (day 0) of feeding with DSS water is defined as 1, and the stool consistency and fecal occult blood in each mouse were recorded. […]

[5] = biological target: T1, ribonuclease (RNase A) (Bos taurus, UniProt P61823); assay: Stability test for GalNAc4S-6ST siRNA at 37° C., agarose gel electrophoresis; type: in vitro ADME
T1 construct: purchased SIGMA
T1 sequence (P61823 27-150): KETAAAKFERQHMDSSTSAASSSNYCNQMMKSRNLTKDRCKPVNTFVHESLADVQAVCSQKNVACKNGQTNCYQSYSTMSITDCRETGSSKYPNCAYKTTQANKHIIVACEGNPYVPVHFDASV
Protocol: In this Example, GalNAc4S-6ST siRNA, the same substance used in Example 5, was assessed for its stability. First, test solutions were prepared by adding 1 μg of GalNAc4S-6ST siRNA to 200 μl of sterile phosphate buffer or 0.1% atelocollagen and stirring the mixtures at 4° C. for 20 minutes. 0.1% atelocollagen was prepared by combining 1% atelocollagen (Koken) with ten volumes of sterile phosphate buffer and stirring the mixture at 4° C. for 16 hours. Then, 40 μg of a ribonuclease (RNase A; SIGMA) was added to the prepared test solutions of GalNAc4S-6ST siRNA, and the mixtures were incubated to react at 37° C. The reaction time was 5, 15, 30, 45, or 60 minutes. 500 μl of RNA iso (Takara Bio) was added to the test solutions after reaction. The mixtures were incubated on ice for five minutes, and centrifuged at 14,000 rpm for 15 minutes. The resulting supernatants were collected, and 500 μl of isopropanol and 1 μl of glycogen (Invitrogen) were added thereto. The mixtures were incubated for 15 minutes, and centrifuged at 14,000 rpm for 15 minutes. The supernatants were discarded, and the pellets were saved. 1 ml of 75% ethanol was added to the pellets, and the mixtures were centrifuged at 14,000 rpm for 15 minutes. After this step was repeated twice, the pellets were dried and dissolved in 25 μl of injection solvent (Otsuka Pharmaceutical). 10 μl each of the solutions were combined with 2 μl of Loading Dye (Invitrogen). 3.5% agarose gel was prepared using UltraPure Agarose (Invitrogen), and the samples were electrophoresed in a Mupid-2 plus (ADVANCE) at 100 V for 20 minutes. After electrophoresis, the gel was shaken for 20 minutes in a stain solution prepared by 10,000 times diluting Ethidium Bromide (Invitrogen) with 1×LoTE (composition: 3 mM Tris-HCl (pH 7.5) (Invitrogen), 0.2 mM EDTA (pH 7.5) (Sigma Aldrich Japan)). The gel was photographed with Fluourchem (Innotech) and analyzed.

[6] = system: DSS-induced colitis model mice; assay: Length of the large intestine (colonic contraction) in DSS colitis model mice; type: in vivo, C57BL/6J mice; conditions: day five, p<0.05, t test
Protocol: as §1, §2
Next, the length of the large intestine was measured after sacrificing mice on day five. […] The length of the large intestine is a crucial indicator that reflects the intestinal fibrosis.

[7] = system: GalNAc4S-6ST gene expression; assay: Gene knockdown by siRNA administered into the submucous tissue of large intestine in DSS colitis model mice, quantitative PCR; type: in vivo, mouse; conditions: 0.3 μg/head into submucous tissue of large intestine, day 5
Protocol: as §1
The same GalNAc4S-6ST siRNA (0.3 μg/head) as used in Example 5 was injected to the submucous tissue of mouse large intestine, while the mice were allowed to drink water containing 3% DSS. […] The body weight and disease activity index (DAI) score (Kihara M, Gut. 2003 52: 713-9) were recorded for five days while the mice were allowed to drink water containing 3% DDS. […]
1 ml of RNA iso (Takara Bio) was added to 50 mg each of excised organs (large intestine and kidney). […] The RNA concentrations of extracted samples in UV plates (Corning Costar) were determined using a plate reader (POWER Wave XS; BIO-TEK).
Next, reverse transcription reaction (cDNA synthesis) is conducted by the following procedure. […] For quantitative PCR, SYBR Premix Kit (TAKARA) and Real-time PCR thermal cycler DICE (TAKARA) were used. […]

[8] = presence of ribonuclease (RNase A), phosphate buffer

Compound	Retention at the injection site, CT images [1]	Retention at the injection site, X-ray images [1]	siRNA concentration in the large intestine ([2]; 0.5 hour after injection)	siRNA concentration in the large intestine ([2]; 24 hours after injection)	siRNA concentration in the large intestine ([2]; three hours after injection)	Epithelial disruption, infiltration of inflammatory cells into lamina propria and submucosa, and thickening of muscular layer [3]	DAI score (stool consistency and fecal occult blood) [4]	Stability (gel band) ([5]; absence of ribonuclease, sterile phosphate buffer, after 60 minutes)	Time after which the band disappeared [5, 8]	Time point at which siRNA degradation was observed [5, 8]	Gel band ([5]; siRNA embedded in 0.1% atelocollagen, ribonuclease (RNase A), after 30 minutes)	Colonic contraction (length of the large intestine) [6]	Expression of GalNAc4S-6ST in the kidney [7]	Expression of GalNAc4S-6ST in the large intestine [7]
C[C@H](O)C(=O)Nc1c(I)c(C(=O)NC(CO)CO)c(I)c(C(=O)NC(CO)CO)c1I [iopamidol, N,N′-Bis[2-hydroxy-1-(hydroxymethyl)ethyl]-5-[(2S)-2-hydroxypropanoylamino]-2,4,6-triiodoisophthalamide]	retained specifically at the injection sites and did not spread to other slices	retained in the submucous tissue of the colon without intraperitoneal leakage and transfer to other sections												
GalNAc4S-6ST siRNA: siRNA of SEQ ID NOs: 1 and 2 against GalNAc4S-6ST (Gene Bank accession number NM_015892), Hokkaido System Science (chain 1 GGAGCAGAGCAAGAUGAAUACAAUCAG; chain 2 GAUUGUAUUCAUCUUGCUCUGCUCCAU; listed as RNA, further chemistry not given here)			retained at a very high concentration	continually remained retained	decreased by half	markedly suppressed	lower	relatively stable	30 min	15 min	faint but detectable	significantly suppressed	remained unchanged	significantly suppressed the increased expression
